Test results as given in patent US12022827B2, “Compositions and methods to reduce dicamba volatility and provide plant essential nutrients” (THE BOARD OF TRUSTEES OF THE UNIVERSITY OF ARKANSAS, priority 2019, dated 2024).

Tests used:
[1] = tested on: soybean glufosinate-resistant cultivar (CDZ 4938); assay: Low-tunnel field trial of dicamba volatilization, visible injury to soybean bioindicator (2020); format: in vivo
Method: To further evaluate the efficacy of potassium tetraborate tetrahydrate in reducing volatilization of dicamba, a series of low-tunnel trials were conducted in Fayetteville, Arkansas in 2020, with each trial replicated twice. Experimental treatments were arranged as a single-factor randomized complete block design with three replications. […] A glufosinate-resistant cultivar (CDZ 4938) was planted on 36-inch spaced rows, serving as a bioindicator to quantify visible injury and distance traveled caused by dicamba volatility. Each low-tunnel placed in the field measured 5 by 20 ft (covering two rows of soybean). All tunnels were covered with transparent plastic to create an environment suitable for volatility and to contain the injury. After all tunnels were placed in the field, moistened flats of soil were placed 0.5 miles from the field and treated. Once treated, two flats were placed into appropriate tunnels between two rows of soybean with one flat on either side of a high-volume air sampler located in the center of each tunnel for 48 hours. Afterwards, the flats of soil, air samplers and tunnels were removed from the field. Immediately following trial initiation, pH of each spray solution was collected and analyzed. For data collection, soybean under each tunnel were divided into […] of 5 foot in length where visible injury was assessed on a 0 to 100 scale, where 0 equals no injury and 100 equals plant death. […] All data were subjected to analysis of variance and means separated using Fisher's protected least significance test (α=0.05)

[2] = pH of tank mix, 2019 field trial; format: physicochemical
Method: (§1) A field trial was conducted to determine the effect of adding potassium borate to the herbicide dicamba with respect to the volatilization of dicamba and the movement of dicamba within the environment. In this trial, potassium borate was added to two highly volatile formulations of dicamba, Clarity® (BASF) and Clash™ (Nufarm Americas, Inc), in combination with glyphosate (Roundup PowerMax II®). […] The formulations were applied to a moistened silt loam soil in contained in two plastic trays and placed under 20-foot long tunnels between two rows of dicamba-sensitive (i.e., non-tolerant) soybean crop. […] Soybean injury was visually assessed at 14 and 21 days after initiation of the experiment. Likewise, the distance from the center of the tunnel to the furthest observed 5% level of injury was measured. Air samplers in the center of each tunnel were also used to quantify dicamba volatilization. […]
(§2) In order to evaluate a proprietary volatility reducing agent on several dicamba formulations, two low-tunnel trials were conducted in Fayetteville, Arkansas in 2019. […] Dicamba products evaluated included the diglycolamine (DGA) salt of dicamba (Xtendimax) plus a commercial volatility reduction agent (VaporGrip), DGA salt of dicamba (Clarity) with the volatility reduction agent BK3O3, the dimethylamine (DMA) salt of dicamba (Vanquish), and the DMA salt with BK3O3 along with a nontreated. […]

[3] = tested on: dicamba-sensitive soybean; assay: Low-tunnel field trial of dicamba volatilization, injury to dicamba-sensitive soybean (2019); format: in vivo; conditions: FIG. 1
Method: as §1, §2

[4] = Kborate concentration of 0.025 molar, even when mixed with the potassium salt of glyphosate
Method: To further evaluate the efficacy of potassium tetraborate tetrahydrate in reducing volatilization of dicamba, a series of low-tunnel trials were conducted in Fayetteville, Arkansas in 2020, with each trial replicated twice. Experimental treatments were arranged as a single-factor randomized complete block design with three replications. […] A glufosinate-resistant cultivar (CDZ 4938) was planted on 36-inch spaced rows, serving as a bioindicator to quantify visible injury and distance traveled caused by dicamba volatility. Each low-tunnel placed in the field measured 5 by 20 ft (covering two rows of soybean). All tunnels were covered with transparent plastic to create an environment suitable for volatility and to contain the injury. After all tunnels were placed in the field, moistened flats of soil were placed 0.5 miles from the field and treated. Once treated, two flats were placed into appropriate tunnels between two rows of soybean with one flat on either side of a high-volume air sampler located in the center of each tunnel for 48 hours. […] Immediately following trial initiation, pH of each spray solution was collected and analyzed. For data collection, soybean under each tunnel were divided into eight quadrants of 5 foot in length where visible injury was assessed on a 0 to 100 scale, where 0 equals no injury and 100 equals plant death. […]

Molecule: CP(=O)(O)CCC(N)C(=O)O (stereo not shown) [glufosinate, 2-amino-4-[hydroxy(methyl)phosphoryl]butanoic acid, reference compound]
- average visual injury to soybean in comparison to dicamba plus glyphosate ([1]; glufosinate mixed with dicamba, FIG. 11, 21 days after treatment): increased average visual injury

Molecule: [K+].[K+].[K+].[O-]B([O-])[O-] [potassium borate]
- increase in tank mix pH ([2]; potassium borate 30 g/L added to various formulations of dicamba mixed with glyphosate): 1.9-2.15
- increase of pH of tank mixes ([2]; potassium borate added to tank mixes comprising glyphosate and various formulations of dicamba): ≤ 2.15 pH units
- reduction of sensitive soybean injury ([3]; potassium borate 30 g/L added, compared to standard tank mixes of dicamba or dicamba+glyphosate): ≤ 18%
- reduction of injury to sensitive soybean ([3]; potassium borate added to dicamba, compared to standard tank mixes of dicamba): ≤ 18 percentage points

Molecule: potassium tetraborate tetrahydrate [Kborate]
- reducing volatility of dicamba based on injury to soybean, compared with Kacetate ([1]; 0.015 molar concentration of Kborate): comparable to 0.05 moles of Kacetate
- reducing volatility of a dicamba plus glyphosate mixture, compared with Kacetate ([1]; FIGS. 8-10, 21 days after treatment): outperformed Kacetate
- dicamba volatility of dicamba and glufosinate mixtures ([1]; Kborate added, FIGS. 11-13, 21 days after treatment): reduced dicamba volatility, more so than did Kacetate
- volatilization of a dicamba plus glyphosate mixture based on average and maximum injury ratings and distance to 5% injury to soybean ([1]; Kborate concentrations of 0.0125 molar or higher, 21 days after treatment, FIGS. 5-7): significantly reduced volatilization
- pH of the spray solution [4]: above 6.0
